Here are results for 24 compounds from patent US12649744B2, “N-(pyridin-2-yl)-6,7,8,9-tetrahydro-5h-5,8-epiminocyclohepta[c]pyridine-10-carboxamide derivatives and similar compounds as GPR65 modulators for the treatment of cancer” (PATHIOS THERAPEUTICS LIMITED, priority 2020, dated 2026).

By pIC50 is commonly meant the negative decadic logarithm of the IC50, by convention in mol/L.

pIC50: −log10 of the molar value. A value given as a limit tells only on which side of the number the result lay.

In the assay the target is human recombinant GPR65 (Homo sapiens, UniProt Q8IYL9). In words: Human GPR65 cAMP HTRF antagonist assay. Format: cell-based. Conditions: 1321N1-hrGPR65 cells, assay pH of 7.2, cAMP HTRF; read-out: hGPR65 IC50. An excerpt: The “Human GPR65 cyclic adenosine monophosphate (cAMP) Homogeneous Time Resolved Fluorescence (HTRF) antagonist assay”, or simply “cAMP assay”, as described below, can be used to measure the potency of GPR65 modulators, which is expressed as the concentration of compound required to reduce the increase in cAMP concentration upon GPR65 activation by 50% (i.e. an IC50).
Chain of human recombinant GPR65 (Q8IYL9 whole entry): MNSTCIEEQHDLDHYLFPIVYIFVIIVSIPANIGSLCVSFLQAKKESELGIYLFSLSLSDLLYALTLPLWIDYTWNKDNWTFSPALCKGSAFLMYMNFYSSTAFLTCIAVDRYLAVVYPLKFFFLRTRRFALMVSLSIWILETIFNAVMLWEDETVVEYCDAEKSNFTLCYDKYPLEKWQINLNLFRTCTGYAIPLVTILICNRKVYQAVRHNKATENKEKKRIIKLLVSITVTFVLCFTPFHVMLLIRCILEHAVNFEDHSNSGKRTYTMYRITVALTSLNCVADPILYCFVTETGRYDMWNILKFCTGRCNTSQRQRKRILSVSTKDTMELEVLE
Human GPR65 Cyclic Adenosine Monophosphate (cAMP) Homogeneous Time Resolved Fluorescence (HTRF) Antagonist Assay Procedure
IC50 data was obtained by the following procedure:
1321N1 human astrocytoma cells stably expressing human recombinant GPR65 (1321N1-hrGPR65 cells, EuroscreenFast) were cultured according to the vendor's instructions.
Compounds were tested for their ability to antagonise GPR65, through measuring the concentration of cytoplasmic cAMP following treatment of the cells at a pH of 7.2 to activate GPR65 signalling and addition of the compound to be tested. The extent to which the expected rise in cAMP concentration upon GPR65 activation was suppressed by the added compound is indicative of its potency. The assay was carried out according to EuroscreenFast assay methodology as follows.
On the day of the assay, test compounds were added to 384-well, low volume, white microtiter plates by acoustic dispensing. KRH buffer (5 mM KCl, 1.25 mM MgSO4, 124 mM NaCl, 25 mM HEPES, 13.3 mM Glucose, 1.25 mM KH2PO4 and 1.45 mM CaCl2) was adjusted to pH 6.5, pH 7.6 and pH 8.4 by adding NaOH. 1321N1-hGPR65 cells were rapidly thawed and diluted in KRH, pH 7.6 prior to centrifugation at 300×g for 5 min and resuspension in assay buffer (KRH, pH 7.6, supplemented with 1 mM 3-isobutyl-1-methylxanthine (IBMX) and 200 μM ethylenediaminetetraacetic acid (EDTA)). Cells were added to assay plates at a density of 2,000 cells per well in a volume of 5 μl. Assay plates were briefly centrifuged at 100×g and then incubated at room temperature for 30 min. Cells were stimulated by the addition of 5 μL KRH, pH 6.5, to achieve an assay pH of 7.2, while control wells received 5 μl KRH, pH 8.4 to achieve an assay pH of 7.9. Assay plates were briefly centrifuged at 100×g and then incubated at room temperature for 30 min.
Accumulation of cAMP was detected by cAMP HTRF kit (Cisbio). d2-labeled cAMP and cryptate-labeled anti-cAMP antibody in Lysis and Detection Buffer (Cisbio) were added to assay plates, and the plates were incubated at room temperature for 1 h. HTRF measurements were performed using a Pherastar FSX instrument. Acceptor and donor emission signals were measured at 665 nm and 620 nm, respectively, and HTRF ratios were calculated as signal665 nm/signal620nm×10^4. Data were normalised to high and low control values and fitted with 4-parameter logistic regression to determine hGPR65 IC50 values for the test compounds, which are shown in Table 1.
On the technique in general: TR-FRET usually uses a lanthanide donor and a delayed reading to cut background.
Consider `O=C(Nc1cc(C(F)(F)F)ncc1F)N1[C@H]2CC[C@@H]1c1c[nH]c(=O)cc1C2` [Compound 14, (6S,9R)-N-(5-fluoro-2-(trifluoromethyl)pyridin-4-yl)-3-oxo-3,5,6,7,8,9-hexahydro-2H-6,9-epiminocyclohepta[c]pyridine-10-carboxamide], for which the pIC50 is 5.30 to 6.30. For `O=C(Nc1cnc(-n2nccn2)c(Cl)c1)N1[C@H]2CC[C@@H]1c1ccnc(F)c1C2` [Compound 15, (5R,8S)-N-(5-chloro-6-(2H-1,2,3-triazol-2-yl)pyridin-3-yl)-1-fluoro-6,7,8,9-tetrahydro-5H-5,8-epiminocyclohepta[c]pyridine-10-carboxamide] the value was 5.30 to 6.30; for `O=C(Nc1cnc(Cl)cc1F)N1[C@H]2CC[C@@H]1c1ccnc(F)c1C2` [Compound 16, (5R,8S)-N-(6-chloro-4-fluoropyridin-3-yl)-1-fluoro-6,7,8,9-tetrahydro-5H-5,8-epiminocyclohepta[c]pyridine-10-carboxamide], 5.30 to 6.30. The same measure for `O=C(Nc1cc(Cl)c(C(F)(F)F)cn1)N1[C@H]2CC[C@@H]1c1c[nH]c(=O)cc1C2` [Compound 17, (6S,9R)-N-(4-chloro-5-(trifluoromethyl)pyridin-2-yl)-3-oxo-3,5,6,7,8,9-hexahydro-2H-6,9-epiminocyclohepta[c]pyridine-10-carboxamide]: over 6.30; for `O=C(Nc1cc(C(F)(F)F)ncc1F)N1[C@H]2CC[C@@H]1c1ccnc(F)c1C2` [Compound 18, (5R,8S)-1-fluoro-N-(5-fluoro-2-(trifluoromethyl)pyridin-4-yl)-6,7,8,9-tetrahydro-5H-5,8-epiminocyclohepta[c]pyridine-10-carboxamide]: 5.30 to 6.30. The same measure for `O=C(Nc1ccc(C(F)(F)F)cn1)N1[C@H]2CC[C@@H]1c1ccnc(F)c1C2` [Compound 19, (5R,8S)-1-fluoro-N-(5-(trifluoromethyl)pyridin-2-yl)-6,7,8,9-tetrahydro-5H-5,8-epiminocyclohepta[c]pyridine-10-carboxamide]: over 6.30. As to `O=C(Nc1nc(Cl)c(Cl)cc1F)N1[C@H]2CC[C@@H]1c1ccnc(F)c1C2` [Compound 20, (5R,8S)-N-(5,6-dichloro-3-fluoropyridin-2-yl)-1-fluoro-6,7,8,9-tetrahydro-5H-5,8-epiminocyclohepta[c]pyridine-10-carboxamide], the pIC50 was 5.30 to 6.30.

For `Cc1nonc1NC(=O)N1[C@H]2CC[C@@H]1c1ccnc(F)c1C2` [Compound 21, (5R,8S)-1-fluoro-N-(4-methyl-1,2,5-oxadiazol-3-yl)-6,7,8,9-tetrahydro-5H-5,8-epiminocyclohepta[c]pyridine-10-carboxamide], the negative-log IC50 (pIC50) is 5.30 to 6.30. The same measure for `O=C(Nc1noc(-c2ccccc2)n1)N1[C@H]2CC[C@@H]1c1ccnc(F)c1C2` [Compound 22, (5R,8S)-1-fluoro-N-(5-phenyl-1,2,4-oxadiazol-3-yl)-6,7,8,9-tetrahydro-5H-5,8-epiminocyclohepta[c]pyridine-10-carboxamide]: over 6.30; for `O=C(Nc1nnc(C(F)(F)F)s1)N1[C@H]2CC[C@@H]1c1ccnc(F)c1C2` [Compound 23, (5R,8S)-1-fluoro-N-(5-(trifluoromethyl)-1,3,4-thiadiazol-2-yl)-6,7,8,9-tetrahydro-5H-5,8-epiminocyclohepta[c]pyridine-10-carboxamide]: over 6.30; for `O=C(Nc1nnc(-c2ccncc2)s1)N1[C@H]2CC[C@@H]1c1ccnc(F)c1C2` [Compound 24, (5R,8S)-1-fluoro-N-(5-(pyridin-4-yl)-1,3,4-thiadiazol-2-yl)-6,7,8,9-tetrahydro-5H-5,8-epiminocyclohepta[c]pyridine-10-carboxamide]: 5.30 to 6.30. For `O=C(Nc1ncc(C(F)(F)F)cn1)N1[C@H]2CC[C@@H]1c1ccnc(F)c1C2` [Compound 25, (5R,8S)-1-fluoro-N-(5-(trifluoromethyl)pyrimidin-2-yl)-6,7,8,9-tetrahydro-5H-5,8-epiminocyclohepta[c]pyridine-10-carboxamide] the value was 5.30 to 6.30; for `CCc1nnc(NC(=O)N2[C@H]3CC[C@@H]2c2ccnc(F)c2C3)s1` [Compound 26, (5R,8S)-N-(5-ethyl-1,3,4-thiadiazol-2-yl)-1-fluoro-6,7,8,9-tetrahydro-5H-5,8-epiminocyclohepta[c]pyridine-10-carboxamide], 5.30 to 6.30; for `O=C(Nc1cc2cn(C(F)F)nc2cn1)N1[C@H]2CC[C@@H]1c1ccnc(F)c1C2` [Compound 27, (5R,8S)-N-(2-(difluoromethyl)-2H-pyrazolo[3,4-c]pyridin-5-yl)-1-fluoro-6,7,8,9-tetrahydro-5H-5,8-epiminocyclohepta[c]pyridine-10-carboxamide], under 5.30. The same measure for `O=C(Nc1cnc(-c2ccccc2)s1)N1[C@H]2CC[C@@H]1c1ccnc(F)c1C2` [Compound 29, (5R,8S)-1-Fluoro-N-(2-phenylthiazol-5-yl)-6,7,8,9-tetrahydro-5H-5,8-epiminocyclohepta[c]pyridine-10-carboxamide]: over 6.30; for `O=C(Nc1nc(Cl)c(Cl)s1)N1[C@H]2CC[C@@H]1c1ccnc(F)c1C2` [Compound 30, (5R,8S)-N-(4,5-Dichlorothiazol-2-yl)-1-fluoro-6,7,8,9-tetrahydro-5H-5,8-epiminocyclohepta[c]pyridine-10-carboxamide]: over 6.30; for `O=C(Nc1nnc(C2CC2)s1)N1[C@H]2CC[C@@H]1c1ccnc(F)c1C2` [Compound 31, (5R,8S)-N-(5-Cyclopropyl-1,3,4-thiadiazol-2-yl)-1-fluoro-6,7,8,9-tetrahydro-5H-5,8-epiminocyclohepta[c]pyridine-10-carboxamide]: 5.30 to 6.30.

As to `O=C(Nc1nnc(C2CCOCC2)s1)N1[C@H]2CC[C@@H]1c1ccnc(F)c1C2` [Compound 32, (5R,8S)-1-Fluoro-N-(5-(tetrahydro-2H-pyran-4-yl)-1,3,4-thiadiazol-2-yl)-6,7,8,9-tetrahydro-5H-5,8-epiminocyclohepta[c]pyridine-10-carboxamide], the pIC50 was under 5.30. Take `O=C(Nc1nnc(-c2ccccc2)s1)N1[C@H]2CC[C@@H]1c1ccnc(F)c1C2` [Compound 33, (5R,8S)-1-Fluoro-N-(5-phenyl-1,3,4-thiadiazol-2-yl)-6,7,8,9-tetrahydro-5H-5,8-epiminocyclohepta[c]pyridine-10-carboxamide]: the pIC50 was over 6.30. The same measure for `Cn1nc(NC(=O)N2[C@H]3CC[C@@H]2c2ccnc(F)c2C3)c2ccccc21` [Compound 34, (5R,8S)-1-Fluoro-N-(1-methyl-1H-indazol-3-yl)-6,7,8,9-tetrahydro-5H-5,8-epiminocyclohepta[c]pyridine-10-carboxamide]: under 5.30; for `O=C(Nc1ccc2nonc2c1)N1[C@H]2CC[C@@H]1c1ccnc(F)c1C2` [Compound 35, (5R,8S)-N-(Benzo[c][1,2,5]oxadiazol-5-yl)-1-fluoro-6,7,8,9-tetrahydro-5H-5,8-epiminocyclohepta[c]pyridine-10-carboxamide]: 5.30 to 6.30. The same measure for `O=C(Nc1cc(C(F)(F)F)on1)N1[C@H]2CC[C@@H]1c1ccnc(F)c1C2` [Compound 36, (5R,8S)-1-Fluoro-N-(5-(trifluoromethyl)isoxazol-3-yl)-6,7,8,9-tetrahydro-5H-5,8-epiminocyclohepta[c]pyridine-10-carboxamide]: over 6.30; for `N#Cc1ccc(NC(=O)N2[C@H]3CC[C@@H]2c2ccnc(F)c2C3)nc1C(F)(F)F` [Compound 37, (5R,8S)-N-(5-Cyano-6-(trifluoromethyl)pyridin-2-yl)-1-fluoro-6,7,8,9-tetrahydro-5H-5,8-epiminocyclohepta[c]pyridine-10-carboxamide]: 5.30 to 6.30. The same measure for `N#Cc1cnc(NC(=O)N2[C@H]3CC[C@@H]2c2ccnc(F)c2C3)c(C(F)(F)F)c1` [Compound 38, (5R,8S)-N-(5-Cyano-3-(trifluoromethyl)pyridin-2-yl)-1-fluoro-6,7,8,9-tetrahydro-5H-5,8-epiminocyclohepta[c]pyridine-10-carboxamide]: over 6.30.
